According to patent US5240961A, “Method of treating reduced insulin-like growth factor and bone loss associated with aging” (priority 1992, dated 1993):
Several values for one entry are separate records, joined by “and”; a condition that tells them apart may be missing. Equal values may be shown once. Entries after “also recorded” stand apart in the source; their conditions may differ. Read-outs that look alike come from different tables or passages of the source.

Legend:
[1] = Serum carnitine levels in young mice fed L-carnitine; format: in vivo, mouse (BALB/c); conditions: mouse, po, 50 mg/kg/day, 50 mg/kg/day oral
Description: (§1) The present invention is further explained by the following examples which should not be construed by way of limiting the scope of the present invention. In the following examples, serum carnitine levels were determined by the method of R. Parvin et al., Anal. Biochem., vol. 79 (1979) pp. 190-201. Serum IGF-1 concentrations were measured by immunoradiometric assay, for example, by IRMA Kit available from Diagnostic Systems Laboratories, Inc., Webster, Texas. Serum osteocalcin levels were measured according to the method of Grunaberg et al., Meth. Enzymology, vol 107 (1984) 516, and which is embodied in an osteocalcin kit available from Biomedical Technologies, Inc., Stoughton, Mass. All mice used in the animal studies were BALB/c strain which is commercially available.
(§2) Similar tests were performed on six young mice, i.e., 2 months 5 months of age. One group (n=3) was fed a diet with L-carnitine supplementation for three months, the other (n=3) was fed normal, unsupplemented feed (control). Each mouse in the test group was fed a daily oral dose of L-carnitine of about 50 mg/kg of body weight. Mouse blood was sampled prior to beginning of the trial (pretreatment) i.e., at two months of age, and at 5 months of age, and was evaluated for serum osteocalcin and carnitine levels.

serum osteocalcin [2] = assay: Serum osteocalcin after oral L-carnitine, double-blind study in patients over 60 (Example 5); format: in vivo, human; conditions: for Osteocalcin: individual subjects 010-019, 2 g/day oral; for average serum osteocalcin: treatment group average
Description: as §1
(§3) Nineteen patients (over age 60) were enrolled in a preliminary double-blindstudy to establish the effect of oral L-carnitine treatment on serum IGF-1 and osteocalcin levels. Baseline, i.e., pretreatment, levels of serum IGF-1, osteocalcin and carnitine were measured by known methods. The patients were divided into two groups, control (n=9; subjects 001-009 in Table 5 below) and treatment (n=10; subjects 010-019 in Table 5 below). The treatment group received a daily dosage of 2 g of L-carnitine orally, self-administered, in four separate doses of two 250 mg tablets taken four times per day, for twelve weeks. The control group were given placebo, e.g., simple sugar. Serum samples were drawn every four weeks, and serum carnitine, IGF-1 and osteocalcin were determined.

serum osteocalcin [3] = assay: Osteocalcin response to L-carnitine in aged mice; format: in vivo, mouse (BALB/c)
Description: as §1
Forty aged mice were separated into two groups. After an initial acclimatizing period of one week, one group was fed a diet with L-carnitine supplementation for six weeks and the other was fed normal, unsupplemented feed (control). […] The average daily food for each mouse was determined by weighing the food initially placed in the food bin and weighing the remaining food. […] Mouse blood was sampled prior to beginning of the trial (pretreatment), at the end of three weeks, and at six weeks (posttreatment), and was evaluated for serum osteocalcin and carnitine levels.

serum carnitine = assay: Serum carnitine after oral L-carnitine in healthy adults over 60 (Example 4); format: in vivo, human; conditions: individual subjects, 2 g/day oral, three months; for concentration: 131400 min
Description: as §1
(§4) Seven adults from Example 3 agreed to receive a daily dosage of L-carnitine of 2 g/day, self-administered orally, for three months. Doses were administered four times daily, and each dose consisted of two 250 mg tablets. Of the seven individuals, two individuals dropped out of the study due to unrelated illness; thus, five remained in the study to completion. The following were evaluated by pretreatment and posttreatment comparisons: serum carnitine and serum IGF-1 by known methods, and bone mineral contents by bone scan of thoracic region, i.e., thoracic vertebrae, on a NORLAND scanner.

[4] = as above; format: in vivo, human; conditions: human, serum, po, 2 g/day, individual subjects, 2 g/day oral, three months
Description: as §1, §4

serum IGF-1 [5] = assay: IGF-1 response to L-carnitine supplementation in healthy adults over 60 (Example 4); format: in vivo, human; conditions: three months
Description: as §1, §4

serum IGF-1 [6] = assay: Serum IGF-1 after oral L-carnitine, double-blind study in patients over 60 (Example 5); format: in vivo, human; conditions: for IGF-1: individual subjects 010-019, 2 g/day oral; for average serum IGF-1: treatment group average
Description: as §1, §3

[7] = tested on: bone mineral content of thoracic vertebrae; assay: Bone mineral content of thoracic vertebrae by bone scan (Example 4); format: in vivo, human
Description: as §4

serum osteocalcin [8] = assay: Comparative effects of L-carnitine, acetyl carnitine and γ-butyrobetaine on serum osteocalcin in adult mice; format: in vivo, mouse (BALB/c male); conditions: for Osteocalcin: actual intake estimated about half
Description: as §1
Tests were performed to compare the effects on serum osteocalcin of diet supplementation with L-carnitine, its precursor, γ-butyrobetaine (available from Aldrich Chemical Co.) and one of its metabolites, acetylcarnitine (available from Life Science Resources, Milwaukee, Wis. 53223). Twenty adult mice, i.e., three months of age, (BALB/c male mice) were divided into seven groups. Each of the groups was fed diets as indicated hereinbelow for twelve weeks. One group (n=3) was fed a diet with L-carnitine supplementation at a dose of 50 mg/kg of body weight each day, while the second group (n=3) was fed L-carnitine at a daily dose of about 100 mg/kg. The third group (n=2) was fed a diet with acetylcarnitine supplementation at a daily dose of 50 mg/kg, while the fourth group (n=3) was fed a daily dose of 100 mg/kg of this compound. The fifth group (n=2) was fed a daily dose of 50 mg/kg of γ-butyrobetaine supplementation,while the sixth group was fed a daily dose of 100 mg/kg of γ-butyrobetaine. The seventh group (n=4) was fed normal, unsupplemented feed (control). Mouse blood was sampled prior to beginning of the trial (pretreatment), at six weeks, and at the end of the trial (twelve weeks). The samples were evaluated for serum osteocalcin levels at six and twelve weeks. Total carnitine was determined at twelve weeks.

serum osteocalcin [9] = assay: Osteocalcin response to L-carnitine in young mice; format: in vivo, mouse (BALB/c)
Description: as §1, §2

[10] = read-out: Carnitine, Free, posttreatment
[11] = read-out: Carnitine, Total, posttreatment

C[N+](C)(C)C[C@H](O)CC(=O)[O-] [L-carnitine]
concentration at 2190 h ([1]; read-out: Serum Carnitine, Free): 60.2 µM
concentration at 2190 h ([1]; read-out: Serum Carnitine, Total): 84.2 µM
osteocalcin vs control, significance (serum osteocalcin [2]; 4, 8 and 12 weeks): just below significance
Osteocalcin (serum osteocalcin [2]; 4 weeks): 11.8 ng/mL and 13.6 ng/mL and 7.4 ng/mL and 11.5 ng/mL and 7.9 ng/mL and 10.4 ng/mL and 11.6 ng/mL and 3.6 ng/mL and 5.9 ng/mL
Osteocalcin (serum osteocalcin [2]; 8 weeks): 11.9 ng/mL and 10.2 ng/mL and 7.0 ng/mL and 10.8 ng/mL and 9.0 ng/mL and 11.0 ng/mL and 2.4 ng/mL and 4.9 ng/mL
Osteocalcin (serum osteocalcin [2]; 12 weeks): 9.3 ng/mL and 11.8 ng/mL and 8.7 ng/mL and 7.0 ng/mL and 9.1 ng/mL and 11.4 ng/mL and 6.5 ng/mL
average serum osteocalcin (serum osteocalcin [2]; eight weeks): 8.4 ng/mL
average serum osteocalcin (serum osteocalcin [2]; four weeks): 9.2 ng/mL
average serum osteocalcin (serum osteocalcin [2]; twelve weeks): 9.1 ng/mL
Osteocalcin (serum osteocalcin [3]; aged mice (18 months), 50 mg/kg/day oral in feed, six weeks): 29.6 ± 3.6 ng/mL
significance of difference in osteocalcin, treated vs control (p, student's t test) (serum osteocalcin [3]; aged mice, 50 mg/kg/day): ≤ 0.05
concentration (serum carnitine; [10]): 57 µM and 55.4 µM and 38.6 µM and 44.8 µM
concentration (serum carnitine; [11]): 70.7 µM and 68.9 µM and 54.7 µM and 73.4 µM
Carnitine E/F, posttreatment (serum carnitine; ratio esterified/free): 0.32 and 0.24 and 0.42 and 0.64
concentration at 2190 h [4, 10]: 77.2 µM
concentration at 2190 h [4, 11]: 102 µM
significance of IGF-1 increase (p, paired comparisons) (serum IGF-1 [5]; 2 g/day oral): ≤ 0.05
IGF-1, posttreatment (serum IGF-1 [5]; individual subjects 001-005, 2 g/day oral): 396 ng/mL and 280 ng/mL and 148 ng/mL and 270 ng/mL and 264 ng/mL
mean IGF-1 after treatment (serum IGF-1 [5]; mean, 2 g/day oral, pretreatment mean 170): 272 ng/mL
IGF-1 vs control at eight and twelve weeks, significance (serum IGF-1 [6]; eight and twelve weeks): just below significance
correlation between pretreatment IGF-1 and increase in IGF-1 (serum IGF-1 [6]; five treated patients with pretreatment IGF-1 under 200 ng/ml, four weeks): -0.654
serum IGF-1 after treatment (serum IGF-1 [6]; four, eight and twelve week intervals, 1 unit=240 ng): above 500 U/L
IGF-1 (serum IGF-1 [6]; 4 weeks): 118 ng/mL and 192 ng/mL and 62 ng/mL and 213 ng/mL and 305 ng/mL and 318 ng/mL and 185 ng/mL and 178 ng/mL and 244 ng/mL and 173 ng/mL
IGF-1 (serum IGF-1 [6]; 8 weeks): 147 ng/mL and 197 ng/mL and 248 ng/mL and 157 ng/mL and 329 ng/mL and 201 ng/mL and 163 ng/mL and 168 ng/mL
IGF-1 (serum IGF-1 [6]; 12 weeks): 108 ng/mL and 157 ng/mL and 179 ng/mL and 260 ng/mL and 185 ng/mL and 207 ng/mL
average serum IGF-1 (serum IGF-1 [6]; eight weeks): 200.8 ng/mL
average serum IGF-1 (serum IGF-1 [6]; four weeks): 214.0 ng/mL
average serum IGF-1 (serum IGF-1 [6]; twelve weeks): 193.7 ng/mL
IGF-1 response (serum IGF-1 [6]; twelve week test period): increased in the carnitine treatment group; also recorded: the lower the baseline level of IGF-1, the greater the increase in IGF-1; also recorded: restored and maintained IGF-1 levels at the normal range
bone mineral content of the thoracic vertebral region ([7]; all patients, after treatment): all patients demonstrated an increase in bone mineral content of the thoracic vertebral region
Bone mineral content, post treatment ([7]; individual subjects, 2 g/day oral, three months): 427.0 g and 1118.4 g and 986.1 g and 736.2 g and 887.7 g
Bone mineral content, change ([7]; individual subjects, post vs pre treatment, 2 g/day oral, three months): +3.85% and +1.39% and +5.69% and +0.72% and +7.35%
significance of difference in osteocalcin vs control (p, student's t test) (serum osteocalcin [8]; 50 mg/kg/day): < 0.01
Osteocalcin (serum osteocalcin [8]; 50 mg/kg/day, 6 wks): 151 ng/mL and 151 ± 4 ng/mL
Osteocalcin (serum osteocalcin [8]; 50 mg/kg/day, 12 wks): 153 ng/mL
significance of difference in osteocalcin vs control (p, student's t test) (serum osteocalcin [8]; 100 mg/kg/day): < 0.05
Osteocalcin (serum osteocalcin [8]; 100 mg/kg/day, 6 wks): 199 ng/mL and 199 ± 7 ng/mL
Osteocalcin (serum osteocalcin [8]; 100 mg/kg/day, 12 wks): 115 ng/mL
effect on osteocalcin (serum osteocalcin [8]; adult mice, 50 and 100 mg/kg/day): stimulate osteocalcin production in adult mice; also recorded: maintained osteocalcin blood levels
Osteocalcin (serum osteocalcin [9]; 5 mos., 50 mg/kg/day oral for three months): 256 ng/mL
osteocalcin vs control (serum osteocalcin [9]; five months, 50 mg/kg/day): maintained a higher level of osteocalcin at five months
